# Results taken from paper PMC10892120, “Design, Synthesis and Biological Assessment of N′-(2-Oxoindolin-3-ylidene)-6-methylimidazo[2,1-b]thiazole-5-carbohydrazides as Potential Anti-Proliferative Agents toward MCF-7 Breast Cancer” (Pharmaceuticals, 2024).
# Assays:
# MCF-7 = assay: Apoptotic assay, Annexin V/PI analysis in MCF-7; assay type: cell-based; details: MCF-7, Annexin V/PI, % given only in Figure 5
# Procedure: In comparison to the control cells, the apoptotic assay employing Annexin V/PI analysis for compound 6i generated a substantial amount of early and late apoptosis in MCF-7. Compound 6i induced early apoptosis in MCF-7 at rate of 22.05, compared with the control MCF-7 (0.43) (Table 6 and Figure 5).
# These were performed using the approach described in the Supplementary Data, page 44 [46]. […]
# thoroughly, and then centrifuge at 4°C to collect contents to the bottom of the tube. Chill on ice before using. Centrifuge again briefly at 4°C if needed. Preparation of a reaction cocktail is crucial in quantitative PCR applications to reduce pipetting errors and maximize assay precision and accuracy. Assemble the reaction cocktail with all required components except sample template (total RNA) and dispense equal aliquots into each reaction tube. Add target sample to each reaction as the final step. Addition of sample as 5–10 μl volumes will improve assay precision. Replicate samples should be assembled as a master mix with a single addition of sample template.
# Cell cycle analysis and apoptosis
# Transfer the previously prepared cells from 4 °C to the bench-top and equilibrate to room temperature. Gently re-suspend cells by inverting the tube or by gentleup and down pipetting.
# There may be visible thin salt crystals in the tube but this will not affect the sedimentation of the cells in the next step. Pellet the cells at 500 x g for 5 minutes. Carefully aspirate the supernatant without disrupting the pellet. It is better to incompletely remove the supernatant than to accidently aspirate part of the pellet and lose cells. Wash the cells by gently resuspending in 1 mL 1X PBS.
# Again, pellet the cells at 500 x g for 5 minutes and carefully remove the supernatant. Gently resuspend the cell pellet in 200 μL 1X Propidium Iodide + RNase Staining Solution. Then ensure that the cells are fully resuspended. Incubate at 37 °C in the dark for 20 – 30 minutes. Place tubes on ice (still in the dark) and prepare for flow cytometry analysis. Gently resuspend cells that settled during the incubation by pipetting up and down. If desired, pass cells through an appropriate filter (not provided) to remove cell aggregates. Run samples on flow cytometer: Set appropriate FSC vs. SSC gates to exclude debris and cell aggregates. Collect Propidium iodide fluorescence in FL2.
# The Protein Data Bank (http://www.rcsb.org) was utilized to obtain the 3D structures of […]
# was used to conduct docking studies on established analogues with the VEGFR-2 active site. This program was run with a searching grid that was stretched across ligand molecules, with box […]
# parameters set to default. The highest scoring posit ion for every compound was chosen after docking it into the crystal structure. […]
# Cytochrome C = assay: RT-PCR gene expression in treated MCF-7 cells: cytochrome C; assay type: cell-based; details: treated MCF-7 cells vs untreated control MCF-7 (=1)
# Procedure: The gene expression levels of apoptosis genes in MCF-7 cells were measured using RT-PCR to validate the apoptosis-inducing behaviors of the potent lead compound 6i in MCF-7 cells.
# The gene expression levels of apoptosis genes were evaluated in MCF-7 cells using the following approaches in the Supplementary Data, page 43.
# Inhibitor solution of each well labeled as “Test Inhibitor”. For the “Positive Control" and “Blank”, add 5 μl of the same solution without inhibitor (Inhibitor buffer). Prepare 3 ml of 1x Kinase Buffer 1 by mixing 600 μl of 5x Kinase Buffer 1 with 2400 μl water. 3 ml of 1x Kinase Buffer 1 is sufficient for 100 reactions. To the wells designated as "Blank", add 20 μl of 1x Kinase Buffer 1.
# Thaw VEGFR2 enzyme on ice. Upon first thaw, briefly spin tube containing enzyme to recover full content of the tube. Calculate the amount of VEGFR2 required for the assay and dilute enzyme to 1 ng/μl with 1x Kinase Buffer 1. Store remaining undiluted enzyme in aliquots at -80°C. Note:
# VEGFR2 enzyme is sensitive to freeze/thaw cycles. Avoid multiple freeze/thaw cycles. […]
# use thawed aliquots or diluted enzyme. […]
# thoroughly, and then centrifuge at 4°C to collect contents to the bottom of the tube. […] Preparation of a reaction cocktail is crucial in quantitative PCR applications to reduce pipetting errors and maximize assay precision and accuracy. […]
smiles,measurement,setting,value
"CCCCN1C(=O)C(=NNC(=O)c2c(C)nc3sccn23)c2ccccc21 [Compound 6i, N′-(1-Butyl-2-oxoindolin-3-ylidene)-6-methylimidazo[2,1-b]thiazole-5-carbohydrazide]",Apoptosis Late,MCF-7; control 0.11,7.61%
same,Apoptosis Early,MCF-7; control 0.43,22.05%
same,Necrosis,MCF-7; control 1.37,3.15%
same,Apoptosis Total,MCF-7; control 1.91,32.81%
same,RT-PCR Fold Change Cytochrome C,Cytochrome C,2.420 fold
